Measured values as given in PubChem BioAssay AID1963845 (Molecular Pharmacology Branch, DTP, NCI, 2024).

Tested on: 429239-143-T-J1-PDC complex spheroid viability
Assay: Anticancer human tumor 429239-143-T-J1-PDC patient-derived small cell lung carcinoma cell line growth inhibition [POLQ]
Settings: for IC50: curve of first compound; for viability, T/C: stronger effect = lower value
Outline: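 Growth inhibition in 3D: complex spheroids (tumor PDC, HUVEC, MSC) treated with POLQ inhibitor combinations; where Cmax unknown, highest tested concentration 10 microM, except SN-38 at 1 microM.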
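Further: luminescence signal used as surrogate measure of viable cells; spheroids exposed to compounds for seven days before readout.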
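Wherever viability, T/C is given: 100% = DMSO vehicle control viability as luminescence relative to vehicle.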

CCc1cc2c(N3CCc4c(cc(Cn5ccnc5)cc4-c4cn(C)nc4C(F)(F)F)C3=O)cc(C)nc2c(OC)n1 + COC1C(OC(N)=O)C(O)C(Oc2ccc3c(O)c(NC(=O)c4ccc(O)c(CC=C(C)C)c4)c(=O)oc3c2C)OC1(C)C
IC50 (second compound 0.0316 µM): 1.47 µM | IC50 (second compound 0.1 µM): 2.24 µM | IC50 (second compound 0.316 µM): 1.39 µM | IC50 (second compound 1 µM): 1.99 µM | IC50 (second compound 3.16 µM): 1.41 µM | IC50 (second compound 10 µM): 0.715 µM | viability, T/C (second compound 0.0316 µM, first compound 0.0316 µM): 85.5% | viability, T/C (second compound 0.0316 µM, first compound 0.1 µM): 85.1% | viability, T/C (second compound 0.0316 µM, first compound 0.316 µM): 70.6% | viability, T/C (second compound 0.0316 µM, first compound 1 µM): 50% | viability, T/C (second compound 0.0316 µM, first compound 3.16 µM): 46.1% | viability, T/C (second compound 0.0316 µM, first compound 10 µM): 29% | viability, T/C (second compound 0.1 µM, first compound 0.0316 µM): 94.5% | viability, T/C (second compound 0.1 µM, first compound 0.1 µM): 88.7% | viability, T/C (second compound 0.1 µM, first compound 0.316 µM): 70% | viability, T/C (second compound 0.1 µM, first compound 1 µM): 64.3% | viability, T/C (second compound 0.1 µM, first compound 3.16 µM): 43.4% | viability, T/C (second compound 0.1 µM, first compound 10 µM): 33.4% | viability, T/C (second compound 0.316 µM, first compound 0.0316 µM): 95.2% | viability, T/C (second compound 0.316 µM, first compound 0.1 µM): 95% | viability, T/C (second compound 0.316 µM, first compound 0.316 µM): 65.1% | viability, T/C (second compound 0.316 µM, first compound 1 µM): 57.8% | viability, T/C (second compound 0.316 µM, first compound 3.16 µM): 41.5% | viability, T/C (second compound 0.316 µM, first compound 10 µM): 40.4% | viability, T/C (second compound 1 µM, first compound 0.0316 µM): 90.2% | viability, T/C (second compound 1 µM, first compound 0.1 µM): 76% | viability, T/C (second compound 1 µM, first compound 0.316 µM): 65.8% | viability, T/C (second compound 1 µM, first compound 1 µM): 69.1% | viability, T/C (second compound 1 µM, first compound 3.16 µM): 37.8% | viability, T/C (second compound 1 µM, first compound 10 µM): 30.5% | viability, T/C (second compound 3.16 µM, first compound 0.0316 µM): 83.8% | viability, T/C (second compound 3.16 µM, first compound 0.1 µM): 83.3% | viability, T/C (second compound 3.16 µM, first compound 0.316 µM): 81.7% | viability, T/C (second compound 3.16 µM, first compound 1 µM): 52.6% | viability, T/C (second compound 3.16 µM, first compound 3.16 µM): 44.2% | viability, T/C (second compound 3.16 µM, first compound 10 µM): 31.1% | viability, T/C (second compound 10 µM, first compound 0.0316 µM): 88.2% | viability, T/C (second compound 10 µM, first compound 0.1 µM): 82.8% | viability, T/C (second compound 10 µM, first compound 0.316 µM): 61.6% | viability, T/C (second compound 10 µM, first compound 1 µM): 44% | viability, T/C (second compound 10 µM, first compound 3.16 µM): 46.3% | viability, T/C (second compound 10 µM, first compound 10 µM): 34.1%
